In patent EP3720857B1, “2-OXO-5H-CHROMENO[4,3-B]PYRIDINES FOR USE IN THE TREATMENT OF HEPATITIS B” (Galapagos NV, priority 2017, dated 2019) one finds IC50 data, which are given here for 23 compounds.

What is called IC50 is the concentration at which inhibition is half-maximal. A low value points to inhibition by little substance.

The test system of this experiment is hepatitis virus B (HBV) infection. Put plainly: HepG2 NTCP assay (HBcAg staining as marker of HBV infection). In kind it is cell-based. The following applies: HepG2-NTCP cells infected with HBV, HBV core antigen (HBcAg) as marker of infection. An excerpt: The principle of the hepG2-NTCP assay is to measure the effect of a test compound on the inhibition of the hepatitis virus B (HBV) infection compared to a reference compound. To be able to infect the hepatocellular carcinoma cells (HepG2) with HBV, HepG2 cells were stably transfected with the Na+-taurocholate co-transporting polypeptide (NTCP) receptor, also referred to as Sodium/bile acid cotransporter (SLC10A1), which is necessary for HBV infection. In this assay the HBV core antigen (HBcAg) is used as a marker of HBV infection. Nuclei count is used as an indication for compound toxicity.
On day one, HepG2-NTCP cells ((Ni et al., 2014)) are seeded at 5000 cells in 50 µL per well in assay medium (DMEM high glucose supplemented with 10% non-heat inactivated (non HI) fetal bovine serum (FBS), 1% P/S, 1% L-glutamine and 1% MEM NEAA) in 384 well plate and incubated at 37°C, 5% CO2 overnight.
Compounds are prepared as 10 point serial dilutions using 1/3 dilution steps in 100% DMSO starting from 10 mM highest concentration, unless otherwise requested for very potent compounds, which started from 5mM or 1mM stock. Compounds are further diluted 1/500 in assay medium.
A negative control (vehicle: 24 wells with 0.2% DMSO) and positive control (24 wells with 100nM Myrcludex B (Cas no.: 406461-66-3), 0.2% DMSO and in 10 point DR) are included in the experiments.
On the second day, 40µl medium is removed from the cells with the plate washer (Select 405 microplate washer, Biotek). 15 µL of diluted compound series is transferred to the assay plate and cells are infected with 15 µL of HBV mix (HBV virus, 4%PEG, 1%DMSO in assay medium). The infection is performed in assay medium containing final concentration of 1% DMSO. The assay plate is incubated at 37°C, 5% CO2 overnight.
The next day, 30µl compound and HBV mix are removed from the assay plate with the plate washer and 30 µL of compound series diluted 1/500 in assay medium containing final concentration of 2.5% DMSO is added to the cell assay plate. The assay plate is incubated at 37°C, 5% CO2 for 5 days.
After 5 days of incubation, supernatant is removed from the cells with the plate washer. Cells are fixed with 50 µL of 3.7% formaldehyde added with the Well mate (Matrix technologies) and incubated for 30 min at room temperature. After fixation, cells are washed four times with phosphate buffer saline (1xPBS, 137mM NaCl, 10mM na2HPO4, 2.7mM KCl, 1.8mM KH2PO4 at pH7.4). The cells are finally subjected to HBc staining.
First, the assay plate is blocked with blocking buffer (2%FBS, 3% BSA, 0.2% TritonX100 in PBS) for 1 h at room temperature (optional to block overnight at 4°C).
After 4 washes of PBST (1XPBS + 0.05% Tween) with the plate washer, the assay plate is incubated with 30 µL diluted primary antibody (1/700 Rabbit anti-HBV core antigen, Dako, B0586 or 1/350 Rabbit anti HBV core antigen, Invitrogen, PA516368) in blocking buffer and incubated for 90 min at room temperature.
After 4 washes of PBST with the plate washer, the assay plate is incubated with 50 µL of secondary antibody (Donkey-anti-rabbit Alexa 488 antibody, Lifetechnologies A21206) 1/500 diluted in blocking buffer and incubated for 60 min at room temperature and in the dark.
The assay plate is washed 4 times with PBST on the plate washer and incubated with 50µL of DAPI (Sigma D9542, stock 5mg/mL) 1/10000 diluted in PBS for 15-30 min at room temperature and in the dark. The assay plate is now ready for read out on the InCell Analyzer 2200 (GE Healthcare).
Raw data are generated following read-out performed on InCell 2200 and are imported into the galapagos LIMS for automated calculation of percentage inhibition (PIN) and toxicity by nuclei count, using the control wells mentioned above, and creation of Dose Response curves. Table V. Hepg2 NTCP assay activity of illustrative compounds of the invention
Compound `COc1cc2c(cc1OCC1CN(S(C)(=O)=O)C1)OC(C(C)C)c1cc(C(=O)O)c(=O)n(C3CC3)c1-2` (centres unmarked) [Compound 32, 1-cyclopropyl-5-isopropyl-9-methoxy-8-[(1-methylsulfonylazetidin-3-yl)methoxy]-2-oxo-5H-chromeno[4,3-b]pyridine-3-carboxylic acid] gave an IC50 of 1 to 20 nM. For `COc1cc2c(cc1OCC1COCCO1)OC(C(C)C)c1cc(C(=O)O)c(=O)n(C3CC3)c1-2` (centres unmarked) [Compound 33, 1-cyclopropyl-8-(1,4-dioxan-2-ylmethoxy)-5-isopropyl-9-methoxy-2-oxo-5H-chromeno[4,3-b]pyridine-3-carboxylic acid] the value was 1 to 20 nM; for `COc1cc2c(cc1OCC1COC1)OC(C(C)C)c1cc(C(=O)O)c(=O)n(C3CC3)c1-2` (centres unmarked) [Compound 34, 1-cyclopropyl-5-isopropyl-9-methoxy-8-(oxetan-3-ylmethoxy)-2-oxo-5H-chromeno[4,3-b]pyridine-3-carboxylic acid], 1 to 20 nM.

`COc1cc2c(cc1OCC1CNC(=O)O1)OC(C(C)C)c1cc(C(=O)O)c(=O)n(C3CC3)c1-2` (centres unmarked) [Compound 35, 1-cyclopropyl-5-isopropyl-9-methoxy-2-oxo-8-[(2-oxooxazolidin-5-yl)methoxy]-5H-chromeno[4,3-b]pyridine-3-carboxylic acid] showed an IC50 of 20 to 100 nM. For `COc1cc2c(cc1OCCCO)OC(C(C)C)c1cc(C(=O)O)c(=O)n(C3CC3)c1-2` (centres unmarked) [Compound 36, 1-cyclopropyl-8-(3-hydroxypropoxy) -5-isopropyl-9-methoxy-2-oxo-5H-chromeno[4,3-b]pyridine-3-carboxylic acid] the value was 1 to 20 nM. Take `CCOc1cc2c(cc1OC)-c1c(cc(C(=O)O)c(=O)n1C1CC1)C(C(C)C)O2` (centres unmarked) [Compound 37, 1-cyclopropyl-8-ethoxy-5-isopropyl-9-methoxy-2-oxo-5H-chromeno[4,3-b]pyridine-3-carboxylic acid]: the half-maximal inhibitory concentration (IC50) is 1 to 20 nM.

For the compound `COc1cc2c(cc1OCC(C)C)OC(C(C)C)c1cc(C(=O)O)c(=O)n(C3CC3)c1-2` (centres unmarked) [Compound 38, 1-cyclopropyl-8-isobutoxy-5-isopropyl-9-methoxy-2-oxo-5H-chromeno[4,3-b]pyridine-3-carboxylic acid], the half-maximal inhibitory concentration (IC50) is 1 to 20 nM. With `COc1cc2c(cc1OC(C)C)OC(C(C)C)c1cc(C(=O)O)c(=O)n(C3CC3)c1-2` (centres unmarked) [Compound 39, 1-cyclopropyl-8-isopropoxy-5-isopropyl-9-methoxy-2-oxo-5H-chromeno[4,3-b]pyridine-3-carboxylic acid] the figure was 1 to 20 nM; with `CCCOc1cc2c(cc1OC)-c1c(cc(C(=O)O)c(=O)n1C1CC1)C(C(C)C)O2` (centres unmarked) [Compound 40, 1-cyclopropyl-5-isopropyl-9-methoxy-2-oxo-8-propoxy-5H-chromeno[4,3-b]pyridine-3-carboxylic acid], 1 to 20 nM. For `COc1cc2c(cc1OCc1ccccc1)OC(C(C)C)c1cc(C(=O)O)c(=O)n(C3CC3)c1-2` (centres unmarked) [Compound 41, 8-benzyloxy-1-cyclopropyl-5-isopropyl-9-methoxy-2-oxo-5H-chromeno[4,3-b]pyridine-3-carboxylic acid] the value was over 100 nM; for `CCOCCOc1cc2c(cc1OC)-c1c(cc(C(=O)O)c(=O)n1C1CC1)C(C(C)C)O2` (centres unmarked) [Compound 42, 1-cyclopropyl-8-(2-ethoxyethoxy)-5-isopropyl-9-methoxy-2-oxo-5H-chromeno[4,3-b]pyridine-3-carboxylic acid], 1 to 20 nM; for `COc1cc2c(cc1OCC1(C#N)CCC1)OC(C(C)C)c1cc(C(=O)O)c(=O)n(C3CC3)c1-2` (centres unmarked) [Compound 43, 8-[(1-cyanocyclobutyl)methoxy]-1-cyclopropyl-5-isopropyl-9-methoxy-2-oxo-5H-chromeno[4,3-b]pyridine-3-carboxylic acid], 1 to 20 nM.

`COCCCOc1cc2c(cc1F)-c1c(cc(C(=O)O)c(=O)n1C1CC1)[C@@H](C(C)C)O2` [Compound 45, (5R)-1-cyclopropyl-9-fluoro-5-isopropyl-8-(3-methoxypropoxy)-2-oxo-5H-chromeno[4,3-b]pyridine-3-carboxylic acid]: the IC50 is over 100 nM. For the compound `COCCCOc1cc2c(cc1Cl)-c1c(cc(C(=O)O)c(=O)n1C1CCC1)C(C1(C)COC1)O2` (centres unmarked) [Compound 48, 9-chloro-1-cyclobutyl-8-(3-methoxypropoxy) -5-(3-methyloxetan-3-yl)-2-oxo-5H-chromeno[4,3-b]pyridine-3-carboxylic acid], the IC50 was in the range of 0.001 to 1 nM. With `COCCCOc1cc2c(cc1F)-c1c(cc(C(=O)O)c(=O)n1C1CC1)C(C1(C)COC1)O2` (centres unmarked) [Compound 49, 1-cyclopropyl-9-fluoro-8-(3-methoxypropoxy) -5-(3-methyloxetan-3-yl)-2-oxo-5H-chromeno[4,3-b]pyridine-3-carboxylic acid] the figure was 0.001 to 1 nM. With `CC(C)C1Oc2cc(OC[C@@H]3COCCO3)c(Cl)cc2-c2c1cc(C(=O)O)c(=O)n2C1CC1` (stereo partly drawn) [Compound 50, 9-chloro-1-cyclopropyl-8-[[(2S)-1,4-dioxan-2-yl]methoxy]-5-isopropyl-2-oxo-5H-chromeno[4,3-b]pyridine-3-carboxylic acid] the figure was 0.001 to 1 nM; with `CC(C)C1Oc2cc(OC[C@H]3COCCO3)c(Cl)cc2-c2c1cc(C(=O)O)c(=O)n2C1CC1` (stereo partly drawn) [Compound 51, 9-chloro-1-cyclopropyl-8-[[(2R)-1,4-dioxan-2-yl]methoxy]-5-isopropyl-2-oxo-5H-chromeno[4,3-b]pyridine-3-carboxylic acid], 0.001 to 1 nM; with `CC(C)C1Oc2cc(OCC3(C)COC3)c(Cl)cc2-c2c1cc(C(=O)O)c(=O)n2C1CC1` (centres unmarked) [Compound 52, 9-chloro-1-cyclopropyl-5-isopropyl-8-[(3-methyloxetan-3-yl)methoxy]-2-oxo-5H-chromeno[4,3-b]pyridine-3-carboxylic acid], 0.001 to 1 nM. As for `COCCCOc1cc2c(cc1Cl)-c1c(cc(C(=O)O)c(=O)n1C1CC1)C(C1CCOC1)O2` (centres unmarked) [Compound 53, 9-chloro-1-cyclopropyl-8-(3-methoxypropoxy) -2-oxo-5-tetrahydrofuran-3-yl-5H-chromeno[4,3-b]pyridine-3-carboxylic acid], the IC50 fell in the range of 0.001 to 1 nM. `COCCCOc1cc2c(cc1Cl)-c1c(cc(C(=O)O)c(=O)n1C1CC1)C(C1CCOCC1)O2` (centres unmarked) [Compound 54, 9-chloro-1-cyclopropyl-8-(3-methoxypropoxy) -2-oxo-5-tetrahydropyran-4-yl-5H-chromeno[4,3-b]pyridine-3-carboxylic acid] returned an IC50 of 0.001 to 1 nM. With `COc1cc2c(cc1Cl)-c1c(cc(C(=O)O)c(=O)n1C1CC1)C(C1(C)COC1)O2` (centres unmarked) [Compound 55, 9-chloro-1-cyclopropyl-8-methoxy-5-(3-methyloxetan-3-yl)-2-oxo-5H-chromeno[4,3-b]pyridine-3-carboxylic acid] the figure was 0.001 to 1 nM; with `CCOc1cc2c(cc1Cl)-c1c(cc(C(=O)O)c(=O)n1C1CC1)C(C1(C)COC1)O2` (centres unmarked) [Compound 56, 9-chloro-1-cyclopropyl-8-ethoxy-5-(3-methyloxetan-3-yl)-2-oxo-5H-chromeno[4,3-b]pyridine-3-carboxylic acid], 0.001 to 1 nM. As for `CC1(C2Oc3cc(OCC4CC4)c(Cl)cc3-c3c2cc(C(=O)O)c(=O)n3C2CC2)COC1` (centres unmarked) [Compound 57, 9-chloro-1-cyclopropyl-8-(cyclopropylmethoxy)-5-(3-methyloxetan-3-yl)-2-oxo-5H-chromeno[4,3-b]pyridine-3-carboxylic acid], the IC50 lay within 1 to 20 nM.
